These results are taken from US5350762A, “Tetrahydrocyclopent[B]indole methanamines and related compounds” (priority 1993, dated 1994).

In assay [1] the target is T1, acetylcholinesterase (AChE) (Rattus norvegicus, UniProt P37136).
T1 construct: corpora striata dissected free, weighed and homogenized in 19 volumes; from tissue; host or cells: male Wistar rat corpora striata, whole homogenate
T1 sequence (P37136 32-614): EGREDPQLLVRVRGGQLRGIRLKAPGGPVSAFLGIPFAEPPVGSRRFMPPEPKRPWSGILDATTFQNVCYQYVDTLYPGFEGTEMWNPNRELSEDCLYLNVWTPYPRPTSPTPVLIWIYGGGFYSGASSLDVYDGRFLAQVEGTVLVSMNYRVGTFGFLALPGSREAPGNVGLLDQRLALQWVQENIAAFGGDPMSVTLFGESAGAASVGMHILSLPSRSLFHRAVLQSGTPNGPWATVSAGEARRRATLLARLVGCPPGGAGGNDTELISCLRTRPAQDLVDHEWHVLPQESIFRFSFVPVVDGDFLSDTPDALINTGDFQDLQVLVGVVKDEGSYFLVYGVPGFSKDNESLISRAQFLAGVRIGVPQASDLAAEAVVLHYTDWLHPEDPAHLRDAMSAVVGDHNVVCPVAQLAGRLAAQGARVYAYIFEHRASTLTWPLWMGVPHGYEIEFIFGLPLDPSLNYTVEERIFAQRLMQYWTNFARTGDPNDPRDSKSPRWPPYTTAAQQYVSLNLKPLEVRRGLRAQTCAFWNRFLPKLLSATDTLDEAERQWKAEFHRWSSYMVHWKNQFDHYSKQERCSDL
Description: In vitro inhibition of acetylcholinesterase activity in rat striatum. The format is biochemical, Rat (male Wistar). From the text:
Cholinesterase Inhibition Assay
Cholinesterases are found throughout the body, both in the brain and in serum. However, only brain acetylcholinesterase (AChE) distribution is correlated with central cholinergic innervation.
In Vitro Inhibition of Acetylcholinesterase Activity in Rat Striatum
The method described below was used in this invention for assaying cholinesterase activity.
1. 0.05M Phosphate buffer, pH 7.2
(c) add (a) to (b) until pH reaches 7.2
4. […] If active, IC50 values are determined from the inhibitory activity of subsequent concentrations.
Enzyme activity is measured with the Beckman DU-50 spectrophotometer. This method can be used for IC50 determinations and for measuring kinetic constants.
Reagents are added to the blank and sample cuvettes as follows:
Blank values are determined for each run to control for non-enzymatic hydrolysis of substrate and these values are automatically subtracted by the kindata program available on kinetics soft-pac module. This program also calculates the rate of absorbance change for each cuvette.
Substrate concentration is 10 mM diluted 1:2 in assay yielding final concentration of 5 mM. DTNB concentration is 0.5 mM yielding 0.25 mM final concentration. [formula] IC50 values are calculated from log-probit analysis

Assay [2] addresses T2, Type A monoamine oxidase (MAO-A) (Rattus norvegicus, UniProt P21396).
T2 construct: served as the tissue source for mitochondrial MAO; from tissue; host or cells: male Wistar rat whole brain minus cerebellum, P2 pellet (18,000 g)
T2 sequence (P21396 1-526): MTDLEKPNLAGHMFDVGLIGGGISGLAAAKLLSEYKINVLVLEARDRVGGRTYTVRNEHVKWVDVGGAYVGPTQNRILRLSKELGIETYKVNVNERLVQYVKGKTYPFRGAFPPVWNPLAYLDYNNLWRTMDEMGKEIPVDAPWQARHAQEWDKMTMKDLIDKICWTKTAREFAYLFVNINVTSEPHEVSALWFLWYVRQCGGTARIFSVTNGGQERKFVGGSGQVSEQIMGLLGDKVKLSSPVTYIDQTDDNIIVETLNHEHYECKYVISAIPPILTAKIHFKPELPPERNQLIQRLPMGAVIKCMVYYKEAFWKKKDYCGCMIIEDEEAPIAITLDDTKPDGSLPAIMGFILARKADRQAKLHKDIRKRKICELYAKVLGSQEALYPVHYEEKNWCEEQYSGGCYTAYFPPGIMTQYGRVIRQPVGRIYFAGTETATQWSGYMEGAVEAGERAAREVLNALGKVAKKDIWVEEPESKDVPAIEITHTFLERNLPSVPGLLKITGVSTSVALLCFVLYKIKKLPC
Briefly: Inhibition of Type A monoamine oxidase activity in rat brain synaptosomes. Type of assay: biochemical, Rat (male Wistar). The conditions noted are these: [3H]-5HT substrate 200 μM, 15 min preincubation, 30 min at 37° C., pH 7.4, read-out: Inhibitory Concentration - IC50, Type-A. From the text: (§1) Male Wistar rats weighing 150-250 grams were sacrificed and the brains rapidly removed.

Assay [3] addresses T3, Type B monoamine oxidase (MAO-B) (Rattus norvegicus, UniProt P19643).
T3 construct: served as the tissue source for mitochondrial MAO; from tissue; host or cells: male Wistar rat whole brain minus cerebellum, P2 pellet (18,000 g)
T3 sequence (P19643 1-520): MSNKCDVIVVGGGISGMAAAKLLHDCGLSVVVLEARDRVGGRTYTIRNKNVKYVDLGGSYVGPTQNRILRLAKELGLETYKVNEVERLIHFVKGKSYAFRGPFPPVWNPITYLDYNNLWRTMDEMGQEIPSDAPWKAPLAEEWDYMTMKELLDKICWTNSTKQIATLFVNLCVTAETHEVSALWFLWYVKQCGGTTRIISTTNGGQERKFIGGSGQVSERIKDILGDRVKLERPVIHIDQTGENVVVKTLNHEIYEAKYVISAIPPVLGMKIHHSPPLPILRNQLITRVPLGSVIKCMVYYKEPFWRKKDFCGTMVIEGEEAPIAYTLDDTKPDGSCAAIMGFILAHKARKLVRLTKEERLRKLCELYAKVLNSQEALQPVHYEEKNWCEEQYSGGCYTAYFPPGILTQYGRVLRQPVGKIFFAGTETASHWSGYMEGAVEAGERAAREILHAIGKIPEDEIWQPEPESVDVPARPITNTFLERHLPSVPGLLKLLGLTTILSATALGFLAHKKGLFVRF
Briefly: Inhibition of Type B monoamine oxidase activity in rat brain synaptosomes. Conditions: [14C]-PEA substrate 200 μM, 15 min preincubation, 30 min at 37° C., pH 7.4, read-out: Inhibitory Concentration - IC50, Type-B. Type of assay: biochemical, Rat (male Wistar).
Excerpt: as §1

The subject of assay [4] is monoamine oxidase type A and type B. Conditions: in words; reference (2), Fowler and Ross 1984; cited from earlier work.

Counter-ions that a name gives are not always drawn.

In assay [1], `CNC(=O)Oc1ccc2c(c1)c1c(n2C)CC(CN(C)C)C1` (centres unmarked) [1,2,3,4-Tetrahydro-2-[(dimethylamino)methyl]-4-methylcyclopent[b]indol-7-yl-methylcarbamate hydrochloride] returned an IC50 of 9.6 µM.

Take `CCNCC1Cc2c(n(C)c3ccc(OC)cc23)C1` (centres unmarked) [1,2,3,4-Tetrahydro-4-methyl-7-methoxy-N-ethylcyclopent[b]indole-2-methanamine maleate]: the IC50 in assay [2] amounted to 182 µM; in assay [3], 713 µM.

`COc1ccc2c(c1)c1c(n2C)CC(CN)C1` (centres unmarked) [1,2,3,4-Tetrahydro-7-methoxy-4-methylcyclopent[b]indole-2-methanamine hydrochloride]: the results for the IC50 in assay [2] and in assay [3] were 59 µM and 287 µM, respectively.

For the compound `C#CCN(C)CCCOc1ccc(Cl)cc1Cl` [Clorgyline], the “selectivity of inhibition of type A / type B monoamine oxidase” value in assay [4] is “selective inhibitor of the type A enzyme”.

For `CC(C)NNC(=O)c1ccncc1` [iproniazid], in assay [4], the “selectivity of inhibition of type A / type B monoamine oxidase” value is given as “nonselective inhibitors”.

As to `C#CCN(C)Cc1ccccc1` [pargyline], the “selectivity of inhibition of type A / type B monoamine oxidase” value in assay [4] is “selective inhibitors of the type B enzyme”.
